The source of these data is patent US20220356174A1, “PYRIDIN-2-ONE COMPOUNDS USEFUL AS SMARCA2 ANTAGONISTS” (Epizyme, Inc., priority 2018, published 2022).

Some results are limits rather than exact numbers.

Sequence of FL-SMARCA4 (P51532 whole entry): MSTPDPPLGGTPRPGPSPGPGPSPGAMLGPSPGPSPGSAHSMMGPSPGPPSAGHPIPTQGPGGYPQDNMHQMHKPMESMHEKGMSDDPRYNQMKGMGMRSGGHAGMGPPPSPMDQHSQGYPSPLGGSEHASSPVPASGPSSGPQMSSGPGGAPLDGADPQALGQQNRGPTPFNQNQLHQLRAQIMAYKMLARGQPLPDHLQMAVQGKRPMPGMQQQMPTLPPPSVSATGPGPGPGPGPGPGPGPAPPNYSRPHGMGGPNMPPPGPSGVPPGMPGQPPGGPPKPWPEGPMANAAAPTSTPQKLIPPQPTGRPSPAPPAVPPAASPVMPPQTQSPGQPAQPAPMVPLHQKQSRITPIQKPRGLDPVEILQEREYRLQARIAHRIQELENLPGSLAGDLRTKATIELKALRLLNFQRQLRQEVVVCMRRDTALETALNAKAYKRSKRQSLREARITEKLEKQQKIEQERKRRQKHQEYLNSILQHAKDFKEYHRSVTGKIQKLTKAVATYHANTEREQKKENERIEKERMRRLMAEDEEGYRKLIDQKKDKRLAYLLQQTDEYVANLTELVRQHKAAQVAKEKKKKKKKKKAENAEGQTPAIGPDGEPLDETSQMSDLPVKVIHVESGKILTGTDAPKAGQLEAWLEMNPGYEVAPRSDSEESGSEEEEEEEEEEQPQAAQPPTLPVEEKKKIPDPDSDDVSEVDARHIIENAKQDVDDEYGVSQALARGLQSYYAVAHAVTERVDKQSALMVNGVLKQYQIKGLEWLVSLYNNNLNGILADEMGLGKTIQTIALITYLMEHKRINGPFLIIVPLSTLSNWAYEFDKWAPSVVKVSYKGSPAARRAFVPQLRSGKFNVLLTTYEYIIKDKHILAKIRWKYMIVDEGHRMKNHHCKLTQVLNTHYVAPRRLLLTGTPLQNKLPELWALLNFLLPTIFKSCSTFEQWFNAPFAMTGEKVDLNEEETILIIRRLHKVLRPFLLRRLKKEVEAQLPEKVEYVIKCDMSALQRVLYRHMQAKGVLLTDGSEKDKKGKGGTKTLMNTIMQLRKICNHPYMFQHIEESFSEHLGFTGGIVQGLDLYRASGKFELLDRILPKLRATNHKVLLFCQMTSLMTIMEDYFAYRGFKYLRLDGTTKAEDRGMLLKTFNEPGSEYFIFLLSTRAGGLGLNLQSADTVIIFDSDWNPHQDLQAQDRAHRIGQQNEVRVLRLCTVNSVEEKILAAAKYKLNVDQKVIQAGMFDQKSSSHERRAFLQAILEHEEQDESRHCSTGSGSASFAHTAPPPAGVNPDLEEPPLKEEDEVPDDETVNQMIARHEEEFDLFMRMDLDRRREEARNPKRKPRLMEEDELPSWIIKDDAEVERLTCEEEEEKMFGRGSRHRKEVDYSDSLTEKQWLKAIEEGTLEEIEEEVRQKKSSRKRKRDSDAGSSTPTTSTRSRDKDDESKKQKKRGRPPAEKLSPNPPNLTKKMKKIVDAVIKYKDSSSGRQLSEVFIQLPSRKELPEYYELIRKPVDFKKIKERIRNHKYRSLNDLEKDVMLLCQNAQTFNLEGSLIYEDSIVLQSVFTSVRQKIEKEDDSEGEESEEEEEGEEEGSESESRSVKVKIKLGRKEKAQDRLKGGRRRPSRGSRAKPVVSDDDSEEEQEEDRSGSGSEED

One test concerns the target FL-SMARCA4 (Homo sapiens, UniProt P51532). Put plainly: SMARCA4 ATPase activity assay (ADP-Glo, chicken mononucleosome substrate). The note with it: FL-SMARCA4 IC50. On the technique in general: In ADP-Glo the light output rises with the ADP produced.
Molecule `N#Cc1cc(C(=O)Nc2cc(OC(F)(F)F)c(=O)n(CC(F)F)c2)sc1C(F)(F)F` [Compound 103d] gave an IC50 greater than 50 µM.
`NCCOCC#Cc1cc(C(=O)Nc2cc(F)c(=O)n(CC(F)F)c2)sc1Cl` [Compound 111d]: the IC50 came to 5.1 µM.
Same read-out and setting: the same measure for `O=C(Nc1cc(F)c(=O)n(CC(F)F)c1)c1cc(C#C[C@H]2C[C@@H](CO)C2)c(Cl)s1` [Compound 134d]: 0.0587 µM; for `CC1(C)CC(C#Cc2cc(C(=O)Nc3cc(F)c(=O)n(CC(F)F)c3)sc2Cl)CC(C)(C)N1` [Compound 121d]: 17.3 µM.
In turn, `O=C(Nc1cc(F)c(=O)n(CC(F)F)c1)c1cc(C#C[C@H]2C[C@H](O)C2)c(Cl)s1` [Compound 73d] returned an IC50 of 0.0327 µM.
The same measure, in the same setting: the figure for `CC(F)(F)c1sc(C(=O)Nc2cc(F)c(=O)n(CC(F)F)c2)cc1C#N` [Compound 83d] is 2.39 µM; for `O=C(Nc1cc(F)c(=O)n(CC(F)F)c1)c1cc(C#CC(=O)N2CCCC2)c(Cl)s1` [Compound 70d] it is 4.75 µM; for `CC(C)(F)c1sc(C(=O)Nc2cc(F)c(=O)n(CC(F)F)c2)cc1C#N` [Compound 84d] it is greater than 50 µM.
The same measure, in the same setting: the same measure for `N#Cc1cncc(C#Cc2cc(C(=O)Nc3cc(F)c(=O)n(CC(F)F)c3)sc2Cl)c1` [Compound 64d]: 0.498 µM; for `O=C(Nc1cc(F)c(=O)n(CC(F)F)c1)c1cc(OC(F)(F)F)c(C(F)(F)F)s1` [Compound 89d]: 2.07 µM; for `COc1cncc(C#Cc2cc(C(=O)Nc3cc(F)c(=O)n(CC(F)F)c3)sc2Cl)c1` [Compound 61d]: 0.655 µM.
`O=C(Nc1cc(F)c(=O)n(CC(F)F)c1)c1cc(C#CC2CCn3cnnc3C2)c(Cl)s1` (centres unmarked) [Compound 119d] showed an IC50 of 2.22 µM.
The same measure, in the same setting: the same measure for `N#Cc1cc(C(=O)Nc2cc([N+](=O)[O-])c(=O)n(CC(F)F)c2)sc1C(F)(F)F` [Compound 117d]: greater than 50 µM.
Consider `Cc1sc(C(=O)Nc2cc(F)c(=O)n(CC(F)F)c2)cc1C#N` [Compound 81d], for which the IC50 amounted to 0.241 µM.

For another test, the target named is T1, FL-SMARCA2 (full-length human SMARCA2 isoform 1) (Homo sapiens, UniProt P51531).
T1 construct: FLAG tag (YKDDDDK) (C); made in house; host or cells: Sf21 insect cells (baculovirus, pFastBacI)
T1 sequence (P51531 with tags, fused parts or gaps): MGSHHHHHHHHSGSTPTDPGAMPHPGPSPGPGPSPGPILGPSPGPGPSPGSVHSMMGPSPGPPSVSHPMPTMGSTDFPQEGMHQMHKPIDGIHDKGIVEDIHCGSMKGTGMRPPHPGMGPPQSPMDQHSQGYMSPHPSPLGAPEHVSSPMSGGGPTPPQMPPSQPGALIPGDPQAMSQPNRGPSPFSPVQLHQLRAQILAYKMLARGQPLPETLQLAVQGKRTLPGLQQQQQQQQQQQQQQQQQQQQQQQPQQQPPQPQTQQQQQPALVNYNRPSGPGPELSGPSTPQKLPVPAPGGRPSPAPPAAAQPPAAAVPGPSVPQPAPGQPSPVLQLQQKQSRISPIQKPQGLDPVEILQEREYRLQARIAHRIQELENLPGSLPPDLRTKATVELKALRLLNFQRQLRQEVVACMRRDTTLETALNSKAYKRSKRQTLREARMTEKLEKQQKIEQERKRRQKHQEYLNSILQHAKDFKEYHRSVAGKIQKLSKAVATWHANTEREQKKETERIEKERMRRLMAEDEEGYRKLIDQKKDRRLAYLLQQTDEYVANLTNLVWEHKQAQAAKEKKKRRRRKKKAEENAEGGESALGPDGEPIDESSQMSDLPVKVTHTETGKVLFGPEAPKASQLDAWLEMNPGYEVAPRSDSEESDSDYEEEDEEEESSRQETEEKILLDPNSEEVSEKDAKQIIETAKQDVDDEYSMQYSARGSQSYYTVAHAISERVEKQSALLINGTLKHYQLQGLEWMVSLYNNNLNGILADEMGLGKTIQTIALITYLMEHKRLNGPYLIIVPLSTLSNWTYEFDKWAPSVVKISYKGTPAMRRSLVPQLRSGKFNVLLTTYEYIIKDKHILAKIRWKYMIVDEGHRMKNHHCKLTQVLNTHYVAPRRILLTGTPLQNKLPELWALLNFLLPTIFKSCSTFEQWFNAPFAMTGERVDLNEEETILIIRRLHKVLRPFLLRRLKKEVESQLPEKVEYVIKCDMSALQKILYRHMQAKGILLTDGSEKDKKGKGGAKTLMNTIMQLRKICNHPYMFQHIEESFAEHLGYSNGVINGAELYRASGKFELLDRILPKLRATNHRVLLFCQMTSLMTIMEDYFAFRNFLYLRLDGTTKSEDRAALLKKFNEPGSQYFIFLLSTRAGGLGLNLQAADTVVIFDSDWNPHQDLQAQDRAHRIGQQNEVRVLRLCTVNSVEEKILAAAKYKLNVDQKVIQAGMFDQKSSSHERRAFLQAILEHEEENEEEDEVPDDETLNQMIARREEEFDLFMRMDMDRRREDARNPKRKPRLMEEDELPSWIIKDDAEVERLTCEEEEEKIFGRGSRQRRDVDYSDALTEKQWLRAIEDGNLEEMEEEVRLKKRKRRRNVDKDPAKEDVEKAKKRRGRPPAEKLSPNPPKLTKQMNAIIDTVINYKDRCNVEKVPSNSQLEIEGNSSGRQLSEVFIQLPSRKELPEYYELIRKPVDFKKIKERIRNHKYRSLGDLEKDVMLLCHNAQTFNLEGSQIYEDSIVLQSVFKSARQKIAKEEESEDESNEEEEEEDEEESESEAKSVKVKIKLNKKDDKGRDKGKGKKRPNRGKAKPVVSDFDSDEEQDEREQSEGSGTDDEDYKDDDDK
Put plainly: SMARCA2 ATPase activity assay (ADP-Glo, chicken mononucleosome substrate). In kind it is biochemical. To be noted: Table 3d.1; ATPase assay, enzyme 5 nM, ATP 250 uM, chicken mononucleosome 10 nM, 30 min preincubation; read-out: FL-SMARCA2 IC>50.
For the molecule `N#Cc1cc(C(=O)Nc2cc(OC(F)(F)F)c(=O)n(CC(F)F)c2)sc1C(F)(F)F` [Compound 103d], the IC50 is greater than 50 µM.
Still for that read-out and setting: the same measure for `NCCOCC#Cc1cc(C(=O)Nc2cc(F)c(=O)n(CC(F)F)c2)sc1Cl` [Compound 111d]: 1.7 µM; for `O=C(Nc1cc(F)c(=O)n(CC(F)F)c1)c1cc(C#C[C@H]2C[C@@H](CO)C2)c(Cl)s1` [Compound 134d]: 0.0188 µM.
Still for that read-out and setting: the figure for `CC1(C)CC(C#Cc2cc(C(=O)Nc3cc(F)c(=O)n(CC(F)F)c3)sc2Cl)CC(C)(C)N1` [Compound 121d] is 16.8 µM.
Still for that read-out and setting: the same measure for `O=C(Nc1cc(F)c(=O)n(CC(F)F)c1)c1cc(C#C[C@H]2C[C@H](O)C2)c(Cl)s1` [Compound 73d]: 0.0109 µM; for `CC(F)(F)c1sc(C(=O)Nc2cc(F)c(=O)n(CC(F)F)c2)cc1C#N` [Compound 83d]: 0.465 µM.
Consider `O=C(Nc1cc(F)c(=O)n(CC(F)F)c1)c1cc(C#CC(=O)N2CCCC2)c(Cl)s1` [Compound 70d], for which the IC50 was 1.69 µM.
Same read-out and setting: the figure for `CC(C)(F)c1sc(C(=O)Nc2cc(F)c(=O)n(CC(F)F)c2)cc1C#N` [Compound 84d] is 8.58 µM.
Same read-out and setting: the same measure for `N#Cc1cncc(C#Cc2cc(C(=O)Nc3cc(F)c(=O)n(CC(F)F)c3)sc2Cl)c1` [Compound 64d]: 0.165 µM.
The same measure, in the same setting: the same measure for `O=C(Nc1cc(F)c(=O)n(CC(F)F)c1)c1cc(OC(F)(F)F)c(C(F)(F)F)s1` [Compound 89d]: 0.187 µM.
`COc1cncc(C#Cc2cc(C(=O)Nc3cc(F)c(=O)n(CC(F)F)c3)sc2Cl)c1` [Compound 61d]: the IC50 was 0.197 µM.
The same measure, in the same setting: the same measure for `O=C(Nc1cc(F)c(=O)n(CC(F)F)c1)c1cc(C#CC2CCn3cnnc3C2)c(Cl)s1` (centres unmarked) [Compound 119d]: 0.961 µM; for `N#Cc1cc(C(=O)Nc2cc([N+](=O)[O-])c(=O)n(CC(F)F)c2)sc1C(F)(F)F` [Compound 117d]: 22.4 µM; for `Cc1sc(C(=O)Nc2cc(F)c(=O)n(CC(F)F)c2)cc1C#N` [Compound 81d]: 0.067 µM.

The test system of the next test is A549 cells. Nature of the test: High-throughput proliferation (HTP) assay for A549 cells (CellTiter-Glo, 7 days). The test is classed as cell-based. To be noted: Homo sapiens, 168 h, read-out: A549 SMARCA2 IC50. Put shortly:
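A549 cells plated at 62.5 cells/well in F12K + 10% HI-FBS onto pre-dispensed compound, grown 7 days at 37° C., 5% CO2. Viability by CellTiter-Glo luminescence after 30 min at RT; EC50/IC50 from DMSO (0%) and 10 μM Doxorubicin (100%) inhibition controls.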
Regarding `N#Cc1cc(C(=O)Nc2cc(OC(F)(F)F)c(=O)n(CC(F)F)c2)sc1C(F)(F)F` [Compound 103d], the IC50 was greater than 10 µM.
Still for that read-out and setting: the figure for `NCCOCC#Cc1cc(C(=O)Nc2cc(F)c(=O)n(CC(F)F)c2)sc1Cl` [Compound 111d] is greater than 10 µM; for `O=C(Nc1cc(F)c(=O)n(CC(F)F)c1)c1cc(C#C[C@H]2C[C@@H](CO)C2)c(Cl)s1` [Compound 134d] it is 1.33 µM.
For the molecule `CC1(C)CC(C#Cc2cc(C(=O)Nc3cc(F)c(=O)n(CC(F)F)c3)sc2Cl)CC(C)(C)N1` [Compound 121d], the IC50 was determined as 5.03 µM.
Same read-out and setting: the figure for `O=C(Nc1cc(F)c(=O)n(CC(F)F)c1)c1cc(C#C[C@H]2C[C@H](O)C2)c(Cl)s1` [Compound 73d] is 1.81 µM; for `CC(F)(F)c1sc(C(=O)Nc2cc(F)c(=O)n(CC(F)F)c2)cc1C#N` [Compound 83d] it is greater than 10 µM; for `O=C(Nc1cc(F)c(=O)n(CC(F)F)c1)c1cc(C#CC(=O)N2CCCC2)c(Cl)s1` [Compound 70d] it is 1.96 µM.
With `CC(C)(F)c1sc(C(=O)Nc2cc(F)c(=O)n(CC(F)F)c2)cc1C#N` [Compound 84d], the IC50 is greater than 10 µM.
`N#Cc1cncc(C#Cc2cc(C(=O)Nc3cc(F)c(=O)n(CC(F)F)c3)sc2Cl)c1` [Compound 64d]: the IC50 was found to be 3.81 µM.
Same read-out and setting: the figure for `O=C(Nc1cc(F)c(=O)n(CC(F)F)c1)c1cc(OC(F)(F)F)c(C(F)(F)F)s1` [Compound 89d] is 5.62 µM.
Same read-out and setting: the same measure for `COc1cncc(C#Cc2cc(C(=O)Nc3cc(F)c(=O)n(CC(F)F)c3)sc2Cl)c1` [Compound 61d]: 4.33 µM; for `O=C(Nc1cc(F)c(=O)n(CC(F)F)c1)c1cc(C#CC2CCn3cnnc3C2)c(Cl)s1` (centres unmarked) [Compound 119d]: greater than 10 µM.
`N#Cc1cc(C(=O)Nc2cc([N+](=O)[O-])c(=O)n(CC(F)F)c2)sc1C(F)(F)F` [Compound 117d]: the IC50 stood at 1.96 µM.
Still for that read-out and setting: the same measure for `Cc1sc(C(=O)Nc2cc(F)c(=O)n(CC(F)F)c2)cc1C#N` [Compound 81d]: 2.37 µM.

Another test concerns H358 cells. Put plainly: High-throughput proliferation (HTP) assay for H358 cells (CellTiter-Glo, 7 days). In kind it is cell-based. To be noted: Homo sapiens, NCI-H358, 168 h, read-out: H358 SMARCA2 IC50. As to the method: Thawing vials: H358 cells (ATCC #CRL-5807™) were thawed from a cryovial containing approximately 1.6×10^6 cells frozen in 70% RPMI 1640 medium, 20% HI-FBS and 10% DMSO. Cells were thawed by submerging the bottom half of the vial in a 37° C. water bath and gently flicked until almost thawed. The cells were removed and transferred into a 15 mL conical tube containing 9 mL RPMI 1640 medium+10% HI-FBS and then centrifuged 200×g for 4 min before drawing off the media without disturbing the cell pellet to remove the DMSO. The cells were resuspended again in 15 mL of RPMI 1640 fresh complete media+10% HI-FBS and grown up in a T75 flask at 37° C. with 5% CO2 Incubator. Viability was measured to obtain baseline.
Preparing frozen stock vials: Cell density was counted in a stock flask. The culture was transferred to a 50 mL conical tube and spun down to remove medium, and then resuspend at 1-2×10^6 cells/mL in complete medium containing 10% DMSO and transferred to a 1 mL per vial.
Routine subculture: Sub-confluent cultures (70-80%) were split every 4 days, seeding out at 1-2×10^6 cells/75 cm^2.
Day 0: Assay ready plates were prepared by dispensing 50 nL of compound stock or DMSO in the appropriate wells of 384-well white CulturPlates using Echo550. Using the Multiflo, H358 cells at 50 μL/well were plated in RPMI 1640 complete media+10% HI-FBS+1% pen/strep at cell density determined [20,000 cells/mL (1,000 cells/well)] from growth curve. Treated cells were inclubated at 37° C., 5% CO2, relative humidity >90% for 7 days. CellTiter-Glo (CTG) ATP detection reagent was prepared according to manufacturer's specifications. Cell assay plates were removed from incubator and bring to room temperature (RT).
Using the MultiDrop liquid handler, 30 μL of CTG were added per well. Plates were placed on the multidrop dispenser shake for 5 seconds at RT. Plates were incubated for 30 minutes in the dark at RT before measuring luminescence using the Envison2104.
Data analysis: Using the DMSO control wells as the 0% inhibition (high signal) control and the 10 uM Doxorubicin control wells as the 100% inhibition (low signal) control, percent inhibition EC50s (inflection point) and IC50s were calculated for the compound dose responses.
On to `N#Cc1cc(C(=O)Nc2cc(OC(F)(F)F)c(=O)n(CC(F)F)c2)sc1C(F)(F)F` [Compound 103d], for which the IC50 was greater than 10 µM.
Still for that read-out and setting: the same measure for `NCCOCC#Cc1cc(C(=O)Nc2cc(F)c(=O)n(CC(F)F)c2)sc1Cl` [Compound 111d]: greater than 10 µM; for `O=C(Nc1cc(F)c(=O)n(CC(F)F)c1)c1cc(C#C[C@H]2C[C@@H](CO)C2)c(Cl)s1` [Compound 134d]: greater than 10 µM; for `CC1(C)CC(C#Cc2cc(C(=O)Nc3cc(F)c(=O)n(CC(F)F)c3)sc2Cl)CC(C)(C)N1` [Compound 121d]: 7.38 µM.
As for `O=C(Nc1cc(F)c(=O)n(CC(F)F)c1)c1cc(C#C[C@H]2C[C@H](O)C2)c(Cl)s1` [Compound 73d], the IC50 is greater than 10 µM.
For `CC(F)(F)c1sc(C(=O)Nc2cc(F)c(=O)n(CC(F)F)c2)cc1C#N` [Compound 83d], the IC50 was greater than 10 µM.
Still for that read-out and setting: the figure for `O=C(Nc1cc(F)c(=O)n(CC(F)F)c1)c1cc(C#CC(=O)N2CCCC2)c(Cl)s1` [Compound 70d] is 9.85 µM.
As for `CC(C)(F)c1sc(C(=O)Nc2cc(F)c(=O)n(CC(F)F)c2)cc1C#N` [Compound 84d], the IC50 was greater than 10 µM.
Still for that read-out and setting: the figure for `N#Cc1cncc(C#Cc2cc(C(=O)Nc3cc(F)c(=O)n(CC(F)F)c3)sc2Cl)c1` [Compound 64d] is greater than 10 µM.
Same read-out and setting: the figure for `O=C(Nc1cc(F)c(=O)n(CC(F)F)c1)c1cc(OC(F)(F)F)c(C(F)(F)F)s1` [Compound 89d] is greater than 10 µM; for `COc1cncc(C#Cc2cc(C(=O)Nc3cc(F)c(=O)n(CC(F)F)c3)sc2Cl)c1` [Compound 61d] it is greater than 10 µM.
On the same count and under the same terms, the same measure for `O=C(Nc1cc(F)c(=O)n(CC(F)F)c1)c1cc(C#CC2CCn3cnnc3C2)c(Cl)s1` (centres unmarked) [Compound 119d]: greater than 10 µM.
For the molecule `N#Cc1cc(C(=O)Nc2cc([N+](=O)[O-])c(=O)n(CC(F)F)c2)sc1C(F)(F)F` [Compound 117d], the IC50 is 2.27 µM.
Same read-out and setting: the figure for `Cc1sc(C(=O)Nc2cc(F)c(=O)n(CC(F)F)c2)cc1C#N` [Compound 81d] is greater than 10 µM.
